This is an account of results in patent US20260335323A1, “CHIMERIC MOLECULE” (UCL Business Ltd, priority 2023, published 2026).

Molecules are shown by their SMILES.

In the test the target is T1, ULK1 (Homo sapiens, UniProt O75385).
T1 sequence (O75385 1-1050): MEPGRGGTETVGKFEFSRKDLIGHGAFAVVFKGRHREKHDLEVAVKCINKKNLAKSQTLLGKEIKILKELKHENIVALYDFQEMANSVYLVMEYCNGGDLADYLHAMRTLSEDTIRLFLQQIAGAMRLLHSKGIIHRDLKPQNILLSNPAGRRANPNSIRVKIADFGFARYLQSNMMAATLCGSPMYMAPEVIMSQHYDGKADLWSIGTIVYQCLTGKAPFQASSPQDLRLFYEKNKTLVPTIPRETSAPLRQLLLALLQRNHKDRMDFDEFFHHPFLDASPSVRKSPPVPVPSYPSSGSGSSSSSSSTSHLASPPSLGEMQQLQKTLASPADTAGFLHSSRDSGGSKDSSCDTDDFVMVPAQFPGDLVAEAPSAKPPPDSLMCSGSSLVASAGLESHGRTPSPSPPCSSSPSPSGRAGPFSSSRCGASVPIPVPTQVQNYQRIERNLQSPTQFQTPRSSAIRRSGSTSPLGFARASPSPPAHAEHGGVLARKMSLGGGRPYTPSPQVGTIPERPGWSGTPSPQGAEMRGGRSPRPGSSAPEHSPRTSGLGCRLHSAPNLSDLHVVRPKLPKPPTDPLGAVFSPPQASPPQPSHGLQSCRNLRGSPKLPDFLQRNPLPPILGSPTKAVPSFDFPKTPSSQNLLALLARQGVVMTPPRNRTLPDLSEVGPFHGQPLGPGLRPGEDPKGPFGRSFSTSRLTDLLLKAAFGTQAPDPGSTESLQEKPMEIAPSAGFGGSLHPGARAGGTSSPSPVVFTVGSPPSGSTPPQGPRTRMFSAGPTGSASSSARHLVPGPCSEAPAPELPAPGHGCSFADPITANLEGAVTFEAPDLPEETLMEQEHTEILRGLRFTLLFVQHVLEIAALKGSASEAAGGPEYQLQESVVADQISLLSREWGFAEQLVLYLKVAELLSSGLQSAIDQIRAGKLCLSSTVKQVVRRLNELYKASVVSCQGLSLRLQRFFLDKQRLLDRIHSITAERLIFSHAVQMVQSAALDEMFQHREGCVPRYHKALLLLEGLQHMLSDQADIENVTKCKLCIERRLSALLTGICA
The test is described as follows: Western blot, phosphorylation of ULK1 at Ser317 in PANC-1 cells. The test is classed as cell-based. On the set-up: pSer317 blot or TOM20 co-localisation. An excerpt:
FIG. 2. BL-918 is a potent ULK1 agonist and autophagy inducer (A) Representative images of PANC-1 cells stably expressing the mCherry-EGFP-LC3 tandem reporter treated with ULK1 agonists. Nuclei stained with Hoechst 33342, autophagosomes are shown in the EGFP channel and autolysosomes in the mCherry channel. Fold change in the number of autophagosomes (B) and autolysosomes (C) puncta in ULK1 agonist treated cells. (D) Western blot of PANC-1 cells treated with DMSO, bafilomycin and ULK1 agonists±bafilomycin; probed for p-ULK1 (S317), ULK1, p62, b-actin, LC3-I and LC3-II. Quantifications of western blot for changes in the ratio of p-ULK1 (S317):ULK1 (E), p62 (F) and LC31:LC3II (G). All data shown are mean±SEM, n=3, *p<0.05, ** p<0.01, one-way ANOVA with Dunnett's multiple comparisons test.
FIG. 4. ULKTACs retain ULK1 agonist activity and subsequent induction of autophagy (A) Western blot of PANC-1 cells treated with ULKTACs±bafilomycin, probed for p-ULK1 (S317), ULK1, p62, b-Actin, LC31 and LC3II. Quantifications of (A) for the pULK1:ULK1 ratio (B) LC3I:LC3II ratio (C) and changes in p62 (D). (E) Representative images of PANC-1 cells stably expressing the mCherry-EGFP-LC3 tandem reporter treated with ULKTACs w/or w/o bafilomycin. Nuclei stained with Hoechst 33342, autophagosomes are shown in the EGFP channel and autolysosomes in the mCherry channel. Fold change in the number of autophagosome (F) and autolysosome (G) puncta. Data shown are mean±SEM, *p<0.05, ** p<0.01, *** p<0.001, one-way ANOVA, Dunnett's multiple comparisons test.
Cells were homogenised in protein lysis buffer consisting of 0.1 M Tris pH 8.0, 0.1 M NaCl, 5% glycerol, IGEPAL® CA-630 (#18896. Sigma-Aldrich) and 5 mM EDTA, 0.1 M N-ethyl maleimide (ThermoFisher, #23030) and protease inhibitor (Cell Signalling Technologies, #5871). Protein concentrations were determined using the BCA assay to ensure equal loading. […] The membranes were immunoblotted with primary antibodies, overnight at 4° C. ULK1 (D8H5) Rabbit mAb (#0854) [1:1000], Phospho-ULK1 (Ser 317) Rabbit antibody (#37762) [1:1000], LC3B Rabbit antibody (#2775) [1:1000], TOM20 (D8T4N) Rabbit mAb (#42406) [1:1000] and, Phospho-Ubiquitin (Ser 65) (E2J6T) Rabbit mAb (#62082) [1:500] were obtained from Cell Signalling Technologies. Recombinant Anti-Vinculin Rabbit antibody (EPR8185) (#ab129002) [1:5000] and Anti-Mitofusin2 mouse antibody (6A8) (#ab56889) [1:1000] were purchased from Abcam. […]
Membranes were then incubated with horseradish peroxidase (HRP)-conjugated secondary antibodies (Rabbit #7074 and Mouse #7076) purchased from Cell Signalling Technologies for 1 hour and the HRP signal was detected using EZ-ECL Enhanced Chemiluminescence Detection Kit for HRP (#20-500-500, Sartorius), and imaged with an Alliance Q9 Advanced (UVITec). […]

For `O=C(Nc1ccc(F)cc1F)[C@H](NC(=S)Nc1cc(C(F)(F)F)cc(C(F)(F)F)c1)c1ccccc1` [BL-918, reference compound], the “activation of ULK1 and autophagy (overall)” value is “potent activator of ULK1 and autophagy”; the “phosphorylation of ULK1 at Ser317” value is listed as “induction of phosphorylation of ULK1 at Ser317”.

Turning to `O=C(Nc1cc(C(F)(F)F)cc(C(F)(F)F)c1)N[C@@H](C(=O)Nc1ccc(F)cc1F)c1ccc(OCc2cn(CCOCCOCCNC(=O)C(=O)c3c(-c4ccccc4)[nH]c4ccccc34)nn2)cc1` [NZ-65, (R)-2-(3-(3,5-bis(trifluoromethyl)phenyl)ureido)-N-(2,4-difluorophenyl)-2-(4-((1-(2-(2-(2-(2-oxo-2-(2-phenyl-1H-indol-3-yl)acetamido)ethoxy)ethoxy)ethyl)-1H-1,2,3-triazol-4-yl)methoxy)phenyl) acetamide], the “phosphorylation of ULK1 at Ser317” value is “strong increase in phospho-Ser317 levels”.

For the compound `O=C(Nc1cc(C(F)(F)F)cc(C(F)(F)F)c1)N[C@@H](C(=O)Nc1ccc(F)cc1F)c1ccc(OCc2cn(CCCCCCNC(=O)C(=O)c3c(-c4ccccc4)[nH]c4ccccc34)nn2)cc1` [NZ-66, (R)-2-(3-(3,5-bis(trifluoromethyl)phenyl)ureido)-N-(2,4-difluorophenyl)-2-(4-((1-(6-(2-oxo-2-(2-phenyl-1H-indol-3-yl)acetamido)hexyl)-1H-1,2,3-triazol-4-yl)methoxy)phenyl) acetamide], the “phosphorylation of ULK1 at Ser317” value is recorded as “strong increase in phospho-Ser317 levels”.
